# Test results taken from US10787452B2 (Vertex Pharmaceuticals Incorporated, priority 2012, dated 2020).
# Test system: HCT116 colorectal cancer cells
# Assay: Cisplatin sensitization assay (96 h cell viability MTS);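 further: compound concentration needed to lower the Cisplatin-alone IC50 by a set fold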
# Assay type: cell-based
# Details: 96 h MTS, compound plus Cisplatin
# Method in brief: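 Cisplatin and compound are dosed at the same time, both serially diluted 2-fold from 10 μM final across a full matrix. Plates sit at 37° C in 5% CO2 for 96 h before MTS addition.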
row,Structure (SMILES),Cisplatin Sensitization Assay
1,"Nc1nn2cc(F)cnc2c1C(=O)Nc1cnccc1N1CCN(C2CC2)CC1 [I-N-33, 2-amino-N-(4-(4-cyclopropylpiperazin-1-yl)pyridin-3-yl)-6-fluoropyrazolo[1,5-a]pyrimidine-3-carboxamide]",+ (Compounds with a Cisplatin sensitization value >0.2 μM but <5 μM are marked with “+.”)
2,"COc1ccncc1NC(=O)c1c(N)nn2cc(C(C)C#N)cnc12 (stereo not shown) [I-O-21, 2-amino-6-(1-cyanoethyl)-N-(4-methoxypyridin-3-yl)pyrazolo[1,5-a]pyrimidine-3-carboxamide]",++ (Compounds with a Cisplatin sensitization value >0.02 μM but <0.2 μM are marked with “++.”)
3,"CN(C)C1CN(C(=O)C2CCN(c3c(F)cncc3NC(=O)c3c(N)nn4cc(F)cnc34)CC2)C1 [I-G-22, 2-amino-N-(4-(4-(3-(dimethylamino)azetidine-1-carbonyl)piperidin-1-yl)-5-fluoropyridin-3-yl)-6-fluoropyrazolo[1,5-a]pyrimidine-3-carboxamide]",+++ (Compounds with a Cisplatin sensitization value of <0.02 μM are marked with “+++.”)
4,"CN1CCc2c(cncc2NC(=O)c2c(N)nn3cc(F)cnc23)C1 [I-C-8, 2-amino-6-fluoro-N-(7-methyl-5,6,7,8-tetrahydro-2,7-naphthyridin-4-yl)pyrazolo[1,5-a]pyrimidine-3-carboxamide]",+ (Compounds with a Cisplatin sensitization value >0.2 μM but <5 μM are marked with “+.”)
5,"Cc1cncc(NC(=O)c2c(N)nn3cc(F)cnc23)c1N1CCC(C(=O)N2CCN(C)CC2)CC1 [I-G-55, 2-amino-6-fluoro-N-(5-methyl-4-(4-(4-methylpiperazine-1-carbonyl)piperidin-1-yl)pyridin-3-yl)pyrazolo[1,5-a]pyrimidine-3-carboxamide]",+++ (Compounds with a Cisplatin sensitization value of <0.02 μM are marked with “+++.”)
6,"C[N+]1([O-])CCc2c(cncc2NC(=O)c2c(N)nn3cc(F)cnc23)C1 (stereo not shown) [I-C-9, 5-(2-amino-6-fluoropyrazolo[1,5-a]pyrimidine-3-carboxamido)-2-methyl-1,2,3,4-tetrahydro-2,7-naphthyridine 2-oxide]",+ (Compounds with a Cisplatin sensitization value >0.2 μM but <5 μM are marked with “+.”)
7,"COCCN1CCN(c2ccncc2NC(=O)c2c(N)nn3cc(Cl)cnc23)CC1 [I-N-60, 2-amino-6-chloro-N-(4-(4-(2-methoxyethyl)piperazin-1-yl)pyridin-3-yl)pyrazolo[1,5-a]pyrimidine-3-carboxamide]",+++ (Compounds with a Cisplatin sensitization value of <0.02 μM are marked with “+++.”)
8,"CN1CCN(c2ccncc2NC(=O)c2c(N)nn3cc(CC#N)cnc23)CC1 [I-N-82, 2-amino-6-(cyanomethyl)-N-(4-(4-methylpiperazin-1-yl)pyridin-3-yl)pyrazolo[1,5-a]pyrimidine-3-carboxamide]",++ (Compounds with a Cisplatin sensitization value >0.02 μM but <0.2 μM are marked with “++.”)
9,"Nc1nn2cc(F)cnc2c1C(=O)Nc1cnccc1N1CCC(C(=O)N2CC(F)(F)C2)CC1 [I-G-80, 2-amino-N-(4-(4-(3,3-difluoroazetidine-1-carbonyl)piperidin-1-yl)pyridin-3-yl)-6-fluoropyrazolo[1,5-a]pyrimidine-3-carboxamide]",+++ (Compounds with a Cisplatin sensitization value of <0.02 μM are marked with “+++.”)
10,"Nc1nn2cc(F)cnc2c1C(=O)Nc1cnccc1N1CCN2[C@@H](CCS2(=O)=O)C1 [I-N-247, (S)-2-amino-N-(4-(1,1-dioxidotetrahydro-2H-isothiazolo[2,3-a]pyrazin-5(3H)-yl)pyridin-3-yl)-6-fluoropyrazolo[1,5-a]pyrimidine-3-carboxamide]",+++ (Compounds with a Cisplatin sensitization value of <0.02 μM are marked with “+++.”)
11,"CN1CCN(C(=O)C2CCN(c3c(F)cncc3NC(=O)c3c(N)nn4cc(F)cnc34)CC2)CC12CC2 [I-G-38, 2-amino-6-fluoro-N-(5-fluoro-4-(4-(4-methyl-4,7-diazaspiro[2.5]octane-7-carbonyl)piperidin-1-yl)pyridin-3-yl)pyrazolo[1,5-a]pyrimidine-3-carboxamide]",+++ (Compounds with a Cisplatin sensitization value of <0.02 μM are marked with “+++.”)
12,"Nc1nn2cc(Cl)cnc2c1C(=O)Nc1cnccc1OCCCO [I-O-53, 2-amino-6-chloro-N-(4-(3-hydroxypropoxy)pyridin-3-yl)pyrazolo[1,5-a]pyrimidine-3-carboxamide]",+++ (Compounds with a Cisplatin sensitization value of <0.02 μM are marked with “+++.”)
13,"Nc1nn2cc(F)cnc2c1C(=O)Nc1cnccc1N1CCN(C2COC2)C2CC21 (stereo not shown) [I-N-31, 2-amino-6-fluoro-N-(4-(5-(oxetan-3-yl)-2,5-diazabicyclo[4.1.0]heptan-2-yl)pyridin-3-yl)pyrazolo[1,5-a]pyrimidine-3-carboxamide]",+ (Compounds with a Cisplatin sensitization value >0.2 μM but <5 μM are marked with “+.”)
14,"Nc1nn2cc(F)cnc2c1C(=O)Nc1cnccc1N1CCC(S(=O)(=O)N2CCC2)CC1 [I-N-271, 2-amino-N-(4-(4-(azetidin-1-ylsulfonyl)piperidin-1-yl)pyridin-3-yl)-6-fluoropyrazolo[1,5-a]pyrimidine-3-carboxamide]",+++ (Compounds with a Cisplatin sensitization value of <0.02 μM are marked with “+++.”)
15,"Cc1nc(F)ccc1-c1ccncc1NC(=O)c1c(N)nn2cc(F)cnc12 [I-C-34, 2-amino-6-fluoro-N-(6-fluoro-2-methyl-[3,4′-bipyridin]-3′-yl)pyrazolo[1,5-a]pyrimidine-3-carboxamide]",+++ (Compounds with a Cisplatin sensitization value of <0.02 μM are marked with “+++.”)
16,"Cc1ccn(-c2ccncc2NC(=O)c2c(N)nn3cc(F)cnc23)n1 [I-N-225, 2-amino-6-fluoro-N-(4-(3-methyl-1H-pyrazol-1-yl)pyridin-3-yl)pyrazolo[1,5-a]pyrimidine-3-carboxamide]",++ (Compounds with a Cisplatin sensitization value >0.02 μM but <0.2 μM are marked with “++.”)
17,"Nc1nn2cc(F)cnc2c1C(=O)Nc1cncc(F)c1N1CCC(c2nccs2)CC1 [I-N-184, 2-amino-6-fluoro-N-(5-fluoro-4-(4-(thiazol-2-yl)piperidin-1-yl)pyridin-3-yl)pyrazolo[1,5-a]pyrimidine-3-carboxamide]",++ (Compounds with a Cisplatin sensitization value >0.02 μM but <0.2 μM are marked with “++.”)
18,"Nc1nn2cc(Cl)cnc2c1C(=O)Nc1cnccc1N1CC[S+]([O-])CC1 [I-N-68, 2-amino-6-chloro-N-(4-(1-oxidothiomorpholino)pyridin-3-yl)pyrazolo[1,5-a]pyrimidine-3-carboxamide]",+++ (Compounds with a Cisplatin sensitization value of <0.02 μM are marked with “+++.”)
19,"Cc1ccnnc1-c1ccncc1NC(=O)c1c(N)nn2cc(F)cnc12 [I-C-33, 2-amino-6-fluoro-N-(4-(4-methylpyridazin-3-yl)pyridin-3-yl)pyrazolo[1,5-a]pyrimidine-3-carboxamide]",+ (Compounds with a Cisplatin sensitization value >0.2 μM but <5 μM are marked with “+.”)
20,"CN1C(=O)CCC12CCN(c1ccncc1NC(=O)c1c(N)nn3cc(F)cnc13)CC2 [I-N-235, 2-amino-6-fluoro-N-(4-(1-methyl-2-oxo-1,8-diazaspiro[4.5]decan-8-yl)pyridin-3-yl)pyrazolo[1,5-a]pyrimidine-3-carboxamide]",++ (Compounds with a Cisplatin sensitization value >0.02 μM but <0.2 μM are marked with “++.”)
21,Cc1cncc(NC(=O)c2c(N)nn3cc(F)cnc23)c1-n1nccc1C [I-N-237],+ (Compounds with a Cisplatin sensitization value >0.2 μM but <5 μM are marked with “+.”)
22,"CO[C@H]1CCN(C(=O)C2CCN(c3ccncc3NC(=O)c3c(N)nn4cc(F)cnc34)CC2)C1 [I-G-94, (S)-2-amino-6-fluoro-N-(4-(4-(3-methoxypyrrolidine-1-carbonyl)piperidin-1-yl)pyridin-3-yl)pyrazolo[1,5-a]pyrimidine-3-carboxamide]",+++ (Compounds with a Cisplatin sensitization value of <0.02 μM are marked with “+++.”)
23,"CC1(C)CCCN1c1ccncc1NC(=O)c1c(N)nn2cc(F)cnc12 [I-N-220, 2-amino-N-(4-(2,2-dimethylpyrrolidin-1-yl)pyridin-3-yl)-6-fluoropyrazolo[1,5-a]pyrimidine-3-carboxamide]",++ (Compounds with a Cisplatin sensitization value >0.02 μM but <0.2 μM are marked with “++.”)
24,Nc1nn2cc(F)cnc2c1C(=O)Nc1cnccc1N1CCN(C(=O)C2COC2)CC1 [I-N-249],+++ (Compounds with a Cisplatin sensitization value of <0.02 μM are marked with “+++.”)
25,"Nc1nn2cc(F)cnc2c1C(=O)Nc1cncc(Cl)c1N1CCCC1 [I-N-281, 2-amino-N-(5-chloro-4-(pyrrolidin-1-yl)pyridin-3-yl)-6-fluoropyrazolo[1,5-a]pyrimidine-3-carboxamide]",+++ (Compounds with a Cisplatin sensitization value of <0.02 μM are marked with “+++.”)
26,"Nc1nn2cc(F)cnc2c1C(=O)Nc1cnccc1-c1ccc(C(=O)N2CCNCC2)cc1 [I-C-44, 2-amino-6-fluoro-N-(4-(4-(piperazine-1-carbonyl)phenyl)pyridin-3-yl)pyrazolo[1,5-a]pyrimidine-3-carboxamide]",+++ (Compounds with a Cisplatin sensitization value of <0.02 μM are marked with “+++.”)
27,"Nc1nn2cc(Cl)cnc2c1C(=O)Nc1cnccc1N1CCC(N2CC[C@@H](F)C2)CC1 [I-N-98, (R)-2-amino-6-chloro-N-(4-(4-(3-fluoropyrrolidin-1-yl)piperidin-1-yl)pyridin-3-yl)pyrazolo[1,5-a]pyrimidine-3-carboxamide]",+++ (Compounds with a Cisplatin sensitization value of <0.02 μM are marked with “+++.”)
28,"CN1CCC(c2ccncc2NC(=O)c2c(N)nn3cc(F)cnc23)CC1 [I-C-1, 2-amino-6-fluoro-N-(4-(1-methylpiperidin-4-yl)pyridin-3-yl)pyrazolo[1,5-a]pyrimidine-3-carboxamide]",++ (Compounds with a Cisplatin sensitization value >0.02 μM but <0.2 μM are marked with “++.”)
